# Assay results published in patent publication US20150374734A1, “ACTIVATION OF iNKT CELLS” (INSERM (INSTITUT NATIONAL DE LA SANTÉ ET DE LA RECHERCHE …, priority 2013, published 2015).
# Tests used:
# sorted hepatic NKT cells = assay: Ex vivo stimulatory capacity of in vivo α-GalCer-loaded DC subsets on NKT cells; type: cell-based, mouse; details: DCs sorted 2 h after i.v. α-GalCer 2 μg; 48 h co-culture
# Method: (§1) FIG. 2: CD8α^+ and CD8α^− DCs differ in their ability to activate iNKT cells. A, B and C, Mice were intravenously injected with α-GalCer (2 μg). Two hours later, splenic CD8α^+ and CD8α^− DCs were sorted on the basis of CD11c, CD11b and CD8 expression (A) and co-cultured with sorted NKT cells (B) or with the α-GalCer-responsive IL-2-producing iNKT cell hybridoma DN32.D3 as a readout of Ag presentation (C). B and C, Cytokine production was quantified by ELISA. Results represent the mean±SD of four experiments. D, CD1d expression on CD8α^+ and CD8α^− DCs was assessed by flow cytometry. The staining with the isotype control was identical on both DC subsets. […] E, Recipient mice were intravenously injected with Cy5-conjugated, or unconjugated as a control, α-GalCer (20 μg) and Cy5 incorporation by CD8α^+ DCs (grey) and CD8α^− DCs (black) was analyzed by flow cytometry 2 h later. […]
# (§2) To assess the capacity of DCs to bind/uptake PLGA-based NPs, bone marrow-derived DCs (BM-DCs) (5×10^5 cells/well)^32 or spleen mononuclear cells (MNCs) (1×10^6 cells/well) were exposed with AlexaFluor647-labelled particles (10 μg/ml and 100 μg/ml, respectively) during 2 h at 37° C. After extensive washes, BM-DC (CD11c^+ DEC205^+/−) and spleen CD8α^+ and CD8α^− DCs were analysed by flow cytometry. […] Production of IFN-γ, IL-4 and IL-2 was measured in the culture supernatants by ELISA (R&D systems).
# splenic iNKT cells [1] = assay: Primary iNKT cell activation in vivo (intracellular IFN-γ, serum IL-4); design: species or system mouse
# Method: (§3) FIG. 1: DCs are crucial for iNKT cell primo-activation and for the prevention of iNKT cell anergy. (A) Transgenic CD11c.DTR mice were injected with PBS or DT 24 h before α-GalCer inoculation (100 ng/mouse). (B) Spleen DCs were sorted on the basis of CD11c expression and sensitized for 2 h with α-GalCer (25 ng/ml). Mice were then injected with α-GalCer-sensitized DCs or free α-GalCer (100 ng/mouse). A and B, Mice were euthanized 3 h after α-GalCer (A and B) or DC/α-GalCer (B) inoculation (primo-activation, grey) or received a second intravenous injection of α-GalCer (100 ng/mouse) 7 days later (recall response, black). In these later groups, animals were sacrificed 3 h after α-GalCer challenge. Splenic iNKT cells were then analysed for intracellular IFN-γ production. A representative experiment out of two (A) or three (B) is shown (mean±SD) (n=4). ** p<0.01, * p<0.05 (unpaired Student's t test).
# FIG. 4: Encapsulation of α-GalCer in NP/DEC205 efficiently activates iNKT cells in vivo. Mice were intravenously injected with PBS alone or α-GalCer either in a free soluble form or encapsulated into NP/DEC205 or NP/IgG (5 ng α-GalCer/mouse). […] Production of IL-4 in the sera was quantified by ELISA (right panel) (n=3-8). […] The expression of CD86 (expressed as MFI) by DCs (CD11c^hi) is depicted. […]
# FIG. 5: Targeting α-GalCer into CD8α^+ DCs prevents iNKT cell anergy in vivo. […] Production of IL-4 in the sera was quantified by ELISA (right panel). […]
# Cells were resuspended in the appropriate combination of Abs to allow identification of DC subsets (anti-CD11c, anti-CD8α, anti-CD11b), iNKT cells (anti-TCRβ, PBS-57-loaded CD1d tetramer), NK cells (anti-CD3ε, anti-NK1.1) or γδ T lymphocytes (anti-TCRγδ, anti-CD3ε). […] Expression of intracellular IFN-γ was analysed as previously described.^32 To measure Cy5-α-GalCer incorporation by splenic DC subsets, mice were intravenously injected with Cy5-conjugated α-GalCer (20 μg) and 2 h later, incorporation of Cy5 by spleen DC subsets was analysed by flow cytometry. […]
# [2] = test system: iNKT cell hybridoma DN32.D3; assay: Ex vivo stimulatory capacity of in vivo α-GalCer-loaded DC subsets on DN32.D3; type: cell-based, mouse; details: DCs sorted 2 h after i.v. α-GalCer 2 μg; 24 h co-culture
# Method: as §1, §2
# splenic iNKT cells [3] = assay: iNKT cell recall response / anergy in vivo; design: species or system mouse
# Method: as §3
# FIG. 5: Targeting α-GalCer into CD8α^+ DCs prevents iNKT cell anergy in vivo. Mice were intravenously injected with PBS, free α-GalCer (100 ng/mouse) or α-GalCer encapsulated into NP/DEC205 or NP/IgG (5 ng/mouse). A, After 3 h, mice were bled and splenic iNKT cells were screened for intracellular IFN-γ production. The average percentages±SD of iNKT cells positive for IFN-γ are represented (left panel). Production of IL-4 in the sera was quantified by ELISA (right panel). B, Mice received, 7 days later, a second injection of free α-GalCer ([…]) and spleen iNKT cells were screened for intracellular IFN-γ production 3 h later. […] A representative experiment out of two is shown (mean±SD) (n=3) C, The percentage±SD of iNKT cells expressing PD-1 is represented (7 days after α-GalCer stimulation). A representative experiment out of two is shown (n=4). ** p<0.01, * p<0.05 (unpaired Student's t test).
# Mice were administrated intravenously with 200 μl of PBS containing 5 ng of free (or 100 ng as a control) or encapsulated α-GalCer. […] Splenic iNKT cells were analysed for intracellular IFN-γ expression and IFN-γ and IL-4 concentrations in the sera were determined by ELISA.
compound,measurement,setting,value
"CCCCCCCCCCCCCCCCCCCCCCCCCC(=O)N[C@@H](CO[C@H]1O[C@H](CO)[C@H](O)[C@H](O)[C@H]1O)[C@H](O)[C@H](O)CCCCCCCCCCCCCC [α-GalCer, (2S,3S,4R)-1-O-(alpha-D-galactosyl)-N-hexacosanoyl-2-amino-1,3,4-octadecanetriol]",Secretion of IFN-γ and IL-4 by NKT cells co-cultured with DC subsets,sorted hepatic NKT cells,CD8α^+ DCs promoted a much stronger secretion of IFN-γ and IL-4
same,Primary iNKT cell activation after DC depletion,"splenic iNKT cells [1]; CD11c.DTR mice, DT 24 h before, α-GalCer 100 ng/mouse",strongly lowered the extent of primary iNKT cell activation
same,"Primary iNKT cell activation, low dose in NP/DEC205 vs high dose free","splenic iNKT cells [1]; NP/DEC205 5 ng/mouse, free α-GalCer 100 ng/mouse, 3 h",comparable primary iNKT cell activation
same,"Primary iNKT cell activation, free α-GalCer vs α-GalCer-sensitized DCs","splenic iNKT cells [1]; free 100 ng/mouse, DCs sensitized 2 h with 25 ng/ml, 3 h",triggered a similar primary activation of iNKT cells
same,IL-2 production by DN32.D3 co-cultured with DC subsets,[2],CD8α^+ DCs triggered a higher IL-2 production by the iNKT cell hybridoma DN32.D3
same,PD-1 expression on iNKT cells,"splenic iNKT cells [3]; 7 days after α-GalCer stimulation, listed as free α-GalCer",induced enhanced PD-1 expression on iNKT cells
same,Recall response when DCs lacking at primary stimulation,"splenic iNKT cells [3]; CD11c.DTR mice treated with DT, α-GalCer 100 ng/mouse, rechallenge day 7",totally blunted
same,iNKT cell anergy (IFN-γ recall response),"splenic iNKT cells [3]; second injection of free α-GalCer 100 ng 7 days later, 3 h",induced the expected iNKT cell anergy
